From the NIST ThermoML archive (doi:10.1021/je060271a)
Where “and” joins values, the source holds several entries; their conditions need not be identical. Identical values can stand only once.

Details: 343.15 K, Liquid, Vibrating tube method

CCCCCCC(=O)OCC(COC(=O)CCCCCC)(COC(=O)CCCCCC)COC(=O)CCCCCC [pentaerythritol tetraheptanoate]
Details | mass density
4113.8 kPa | 943.7 kg/m3
4138.8 kPa | 943.6 kg/m3
4164 kPa | 943.7 kg/m3
4194.7 kPa | 943.7 kg/m3
4220.3 kPa | 943.6 kg/m3
4246.6 kPa | 943.7 kg/m3
4273.8 kPa | 943.8 kg/m3
4305 kPa | 943.9 kg/m3
4331.3 kPa | 943.9 kg/m3
4358.7 kPa | 944 kg/m3
4390.2 kPa | 943.8 kg/m3
4413.2 kPa | 943.8 kg/m3
4545.2 kPa | 943.9 kg/m3
4545.5 kPa | 944.1 kg/m3
4546 kPa | 943.9 kg/m3
4546.2 kPa | 944 kg/m3
4546.5 kPa | 944 kg/m3
4547.2 kPa | 944 kg/m3
4547.4 kPa | 944.1 kg/m3
4547.6 kPa | 944 kg/m3
4547.8 kPa | 944.1 kg/m3
4547.9 kPa | 944.1 kg/m3
4548.3 kPa | 944 kg/m3 and 944.1 kg/m3
4548.4 kPa | 944 kg/m3 and 943.9 kg/m3
4548.6 kPa | 944 kg/m3
4548.8 kPa | 944 kg/m3 and 944.1 kg/m3
4549 kPa | 943.9 kg/m3 and 944 kg/m3
4549.1 kPa | 944.2 kg/m3 and 944.1 kg/m3 and 944 kg/m3
4549.3 kPa | 944 kg/m3 and 944.1 kg/m3 and 943.9 kg/m3
4549.5 kPa | 944 kg/m3
4549.7 kPa | 944.1 kg/m3 and 944 kg/m3
4549.8 kPa | 944.1 kg/m3
4549.9 kPa | 944.1 kg/m3 and 944 kg/m3
4550 kPa | 944 kg/m3
4550.1 kPa | 944 kg/m3 and 944.1 kg/m3
4550.2 kPa | 944.1 kg/m3 and 944 kg/m3 and 943.9 kg/m3
4550.4 kPa | 944 kg/m3
4550.5 kPa | 944 kg/m3
4550.7 kPa | 944.1 kg/m3
4550.9 kPa | 944 kg/m3 and 944.2 kg/m3
4551 kPa | 944 kg/m3 and 944.1 kg/m3
4551.2 kPa | 944.1 kg/m3 [middle of 4 runs]
4551.4 kPa | 944 kg/m3 and 944.1 kg/m3
4551.5 kPa | 944 kg/m3
4551.7 kPa | 944.1 kg/m3 and 944 kg/m3
4551.9 kPa | 944 kg/m3 and 944.1 kg/m3
4552.1 kPa | 944 kg/m3 and 944.1 kg/m3
4552.2 kPa | 944.1 kg/m3 and 944 kg/m3 and 944.2 kg/m3
4552.3 kPa | 944.1 kg/m3
4552.4 kPa | 944 kg/m3 and 944.1 kg/m3
4552.6 kPa | 944 kg/m3 and 944.1 kg/m3
4552.8 kPa | 944.1 kg/m3 and 943.9 kg/m3 and 944 kg/m3
4553 kPa | 944 kg/m3 and 943.9 kg/m3 and 944.1 kg/m3
4553.1 kPa | 944.1 kg/m3 [middle of 4 runs]
4553.3 kPa | 944 kg/m3 and 944.1 kg/m3
4553.5 kPa | 944.1 kg/m3 and 944 kg/m3
4553.7 kPa | 944 kg/m3 and 944.1 kg/m3
4553.8 kPa | 944 kg/m3 and 944.1 kg/m3
4554 kPa | 944 kg/m3 and 944.1 kg/m3
4554.2 kPa | 944.1 kg/m3 and 944 kg/m3
4554.3 kPa | 944 kg/m3
4554.5 kPa | 944.1 kg/m3 and 944 kg/m3
4554.7 kPa | 944.1 kg/m3 and 943.9 kg/m3
4554.9 kPa | 944.2 kg/m3 and 944 kg/m3 and 943.9 kg/m3
4555 kPa | 944 kg/m3 and 944.1 kg/m3
4555.2 kPa | 944 kg/m3 and 944.1 kg/m3
4555.4 kPa | 944.1 kg/m3 and 944 kg/m3 and 943.9 kg/m3
4555.5 kPa | 944.2 kg/m3 and 944 kg/m3 and 944.1 kg/m3
4555.7 kPa | 944 kg/m3
4555.9 kPa | 944 kg/m3 and 944.1 kg/m3
4556.1 kPa | 944 kg/m3
4556.2 kPa | 944 kg/m3 and 944.1 kg/m3
4557.6 kPa | 944 kg/m3
4559 kPa | 944.1 kg/m3
4559.2 kPa | 944 kg/m3 and 943.9 kg/m3
4559.3 kPa | 943.9 kg/m3
4559.7 kPa | 944.1 kg/m3 and 944.2 kg/m3
4559.9 kPa | 944.1 kg/m3
4560 kPa | 944.1 kg/m3
4560.9 kPa | 944.1 kg/m3
4564.5 kPa | 944 kg/m3
4567.8 kPa | 944 kg/m3
4571.1 kPa | 944.2 kg/m3
4574.9 kPa | 944 kg/m3
4578.4 kPa | 944.1 kg/m3
4581.7 kPa | 944 kg/m3
4584.6 kPa | 943.9 kg/m3
4588.4 kPa | 944 kg/m3
4591.7 kPa | 944.1 kg/m3
4595.2 kPa | 944.1 kg/m3
4598.3 kPa | 944.1 kg/m3
4602.3 kPa | 944.1 kg/m3
4605.4 kPa | 943.9 kg/m3
4608.7 kPa | 944.1 kg/m3
4612.7 kPa | 944.2 kg/m3
4616.3 kPa | 944 kg/m3
4619.4 kPa | 944.1 kg/m3
4622.7 kPa | 944.1 kg/m3
4626.7 kPa | 944.2 kg/m3
4630 kPa | 944 kg/m3
4633.1 kPa | 944.1 kg/m3
4637.3 kPa | 944.2 kg/m3
4640.7 kPa | 944.1 kg/m3
4644 kPa | 944.1 kg/m3
4647.3 kPa | 944.1 kg/m3
4651.3 kPa | 944 kg/m3
4654.6 kPa | 944.1 kg/m3
4658.4 kPa | 944 kg/m3
4662 kPa | 944.1 kg/m3
4665.5 kPa | 944.2 kg/m3
4669.3 kPa | 944.1 kg/m3
4672.9 kPa | 944.2 kg/m3
4676.2 kPa | 944.1 kg/m3
4680 kPa | 944.2 kg/m3
4683.3 kPa | 944.1 kg/m3
4687.3 kPa | 944.1 kg/m3
4690.8 kPa | 944.1 kg/m3
4693.9 kPa | 944.2 kg/m3
4698.2 kPa | 944.2 kg/m3
4701.7 kPa | 944.1 kg/m3
4705 kPa | 944.2 kg/m3
4708.9 kPa | 944.2 kg/m3
4712.2 kPa | 944.2 kg/m3
4715.9 kPa | 944.1 kg/m3
4719.3 kPa | 944.1 kg/m3
4723.7 kPa | 944.1 kg/m3
4726.4 kPa | 944.2 kg/m3
4730.1 kPa | 944.2 kg/m3
4733.2 kPa | 944.2 kg/m3
4737.5 kPa | 944.3 kg/m3
4741 kPa | 944.2 kg/m3
4744.3 kPa | 944.2 kg/m3
4747.7 kPa | 944.2 kg/m3
4752.2 kPa | 944 kg/m3
4755.3 kPa | 944.1 kg/m3
4759 kPa | 944.1 kg/m3
4763.1 kPa | 944.1 kg/m3
4766.6 kPa | 944.2 kg/m3
4770.2 kPa | 944.3 kg/m3
4774.2 kPa | 944.2 kg/m3
4777.7 kPa | 944.3 kg/m3
4781.6 kPa | 944.1 kg/m3
4785.1 kPa | 944.2 kg/m3
4788.7 kPa | 944.4 kg/m3
4792.9 kPa | 944.3 kg/m3
4796.7 kPa | 944.2 kg/m3
4800 kPa | 944.2 kg/m3
4804.5 kPa | 944.2 kg/m3
4807.9 kPa | 944.3 kg/m3
4811.2 kPa | 944.2 kg/m3
4815.9 kPa | 944.1 kg/m3
4819.4 kPa | 944.2 kg/m3
4823.2 kPa | 944.2 kg/m3
4826.8 kPa | 944.3 kg/m3
4831 kPa | 944.2 kg/m3
4834.6 kPa | 944.2 kg/m3
4838.2 kPa | 944.2 kg/m3
4842 kPa | 944.1 kg/m3
4846.4 kPa | 944.4 kg/m3
4849.8 kPa | 944.2 kg/m3
4853.5 kPa | 944.2 kg/m3
4857.8 kPa | 944.3 kg/m3
4861.9 kPa | 944.3 kg/m3
4865.4 kPa | 944.3 kg/m3
4869.2 kPa | 944.3 kg/m3
4872.8 kPa | 944.2 kg/m3
4877.3 kPa | 944.3 kg/m3
4881 kPa | 944.3 kg/m3
4884.8 kPa | 944.3 kg/m3
4889.1 kPa | 944.2 kg/m3
4892.9 kPa | 944.2 kg/m3
4896.6 kPa | 944.3 kg/m3
4901.2 kPa | 944.3 kg/m3
4905 kPa | 944.3 kg/m3
4908.5 kPa | 944.2 kg/m3
4913 kPa | 944.2 kg/m3
4916.8 kPa | 944.3 kg/m3
4920.4 kPa | 944.2 kg/m3
4924.1 kPa | 944.3 kg/m3
4928.6 kPa | 944.4 kg/m3
4932.2 kPa | 944.4 kg/m3
4936 kPa | 944.3 kg/m3
4940.7 kPa | 944.3 kg/m3
4944.5 kPa | 944.3 kg/m3
4948.5 kPa | 944.4 kg/m3
4952.3 kPa | 944.3 kg/m3
4956.8 kPa | 944.4 kg/m3
4960.4 kPa | 944.2 kg/m3
4964.6 kPa | 944.3 kg/m3
4968.4 kPa | 944.3 kg/m3
4972.4 kPa | 944.2 kg/m3
4977 kPa | 944.2 kg/m3
4980.7 kPa | 944.5 kg/m3
4985.5 kPa | 944.4 kg/m3
4989.3 kPa | 944.4 kg/m3
4993.1 kPa | 944.3 kg/m3
4996.9 kPa | 944.4 kg/m3
5001.4 kPa | 944.3 kg/m3
5005.4 kPa | 944.4 kg/m3
5009.1 kPa | 944.3 kg/m3
5014.1 kPa | 944.4 kg/m3
5018.1 kPa | 944.4 kg/m3
5022 kPa | 944.4 kg/m3
5027 kPa | 944.4 kg/m3
5030.1 kPa | 944.4 kg/m3
5035.7 kPa | 944.4 kg/m3
5043.5 kPa | 944.3 kg/m3
5047.3 kPa | 944.4 kg/m3
5051.4 kPa | 944.4 kg/m3
5054.7 kPa | 944.3 kg/m3
5058.5 kPa | 944.5 kg/m3
5065.1 kPa | 944.5 kg/m3
5069.1 kPa | 944.4 kg/m3
5072.9 kPa | 944.4 kg/m3
5077 kPa | 944.4 kg/m3
5080.4 kPa | 944.4 kg/m3
5085.2 kPa | 944.4 kg/m3
5089.2 kPa | 944.5 kg/m3
5093.4 kPa | 944.5 kg/m3
5098.2 kPa | 944.4 kg/m3
5102.2 kPa | 944.3 kg/m3
5105.8 kPa | 944.4 kg/m3
5109.6 kPa | 944.5 kg/m3
